A short description of data set [1]: Metabolite profiling of pooled feces extracts by radio-HPLC (Group 2). It is filed as in vivo, rat. Conditions: for Proportion of feces sample radioactivity: 24-48 h. As to the method:
Metabolite profiling was performed by HPLC analysis according to the company’s SOP of plasma (Group 3), urine (Group 2) and feces (Group 2) samples. Briefly, for metabolite profiling and identification, radioactivity (cpm) was measured in HPLC eluent fractions that had previously been collected at 12 s intervals for the duration of the run (65 min) into 96-well Deep Well LumaPlates and dried in a centrifugal evaporator. A Microbeta2 scintillation counter was used to count each plate, with wells simultaneously counted for 2 min, after an initial 5 min delay. A subsample of plasma was analyzed (ca 2 ml) taken from individual animals to provide representative samples, for each sex, at 2, 8 and 168 h post dose (n = 6). Equal proportions of the total urine weight voided from Group 2 animals was pooled to provide representative samples for each sex at 0–6 h, 6–24 h and 24–48 h post dose (n = 6). Equal proportions of the total feces homogenate generated from the samples voided by the three rats (Group 2) were pooled to provide representative samples for each sex at 0–24 and 24–48 h post dose ([…]). Sample preparation was carried out due to the company’s SOPs (see Supplementary Methods). The extractability was ≥95.0% (95.0–100%) TRR (Total Radioactive Residue) for plasma and ≥88.3% (88.3%–91.3%) TRR for feces. As reference, a standard solution of zapnometinib (0.1 mg/ml in acetonitrile) was used. To assess HPLC method suitability, a column recovery was assessed on each representative sample (one per matrix). The recovery of radioactivity from the HPLC column was determined by collecting the column eluent, following an injection of a representative sample (one per matrix), and determining the radioactive content by submitting aliquots for LSC analysis. The results of these analyses were between 93.8%–105.1% column recoveries.
Next, radioactive metabolic components of zapnometinib in urine, plasma and feces extracts were isolated and profiled. The components were quantified by fraction collection/scintillation analysis, as appropriate to the radioactivity concentrations. Mass spectroscopy was used to propose identities of the major circulatory and excreted metabolites, and to correlate the metabolites detected in the different matrices. Components identified by LC-MS/MS were related to the quantified HPLC analysis by comparison of related radiochromatograms and comparison of elution order. Representative HPLC radiochromatograms of pooled feces extracts collected during 0–24 and 24–48 h post dose from male and female rats (which reveal the main metabolites) were qualitatively similar with some minor sex differences (Figure 3). […]
times with the following solvents following the same procedure: Extract 2 – Acetonitrile/methanol 4:1 (v/v); Extract 3 – Acetonitrile/Water 1:1 (v/v). Duplicate weighed aliquots of each supernatant (ca 0.1 mL) were mixed directly with Ultima Gold scintillation cocktail for measurement of radioactivity concentrations. The extracted residue was allowed to air dry and the total weight was recorded. Duplicate weighed portions (ca 0.05g) were taken for radioassay after oxidation. The extracts were combined and concentrated under a constant stream of nitrogen gas to near dryness and reconstituted in acetonitrile/0.1% aqueous formic acid, 1:1 (v/v) by vortex mixing, sonication and centrifugation at 10000 × g for 5 min at 4°C.
The concentrates were weighed, and duplicate weighed aliquots (0.025 – 0.05 mL) taken for measurement of radioactivity to calculate recovery following concentration. An aliquot of each concentrated extract was injected into the HPLC. […]
(100 mL) in purified water (600 mL) and methanol (300 mL). After measurement of total sample weight (as appropriate), replicate portions of diluted dose solutions (ca 0.1 mL), plasma (ca 0.05 – 0.25 mL), urine (ca 0.05 – 0.25 mL), expired air trap solution (ca 1 mL) and cage wash (ca 1 mL) were mixed directly with Ultima Gold scintillation cocktail (5 mL; 15 mL for […]

Data set [2] can be described thus: Plasma protein binding assay, rat plasma. It is filed as in vitro ADME. Particulars: data not shown.

With `O=C(O)c1ccc(F)c(F)c1Nc1ccc(I)cc1Cl` [zapnometinib, 2-(2-Chloro-4-iodophenylamino)-3,4-difluorobenzoic acid], the “Amount in pooled feces extracts” value worked out at 19.87 % Dose in data set [1] (0-24 hours, female rats); 19.28 % Dose in data set [1] (0-24 hours, male rats); 6.30 % Dose in data set [1] (24-48 hours, female rats); 2.15 % Dose in data set [1] (24-48 hours, male rats); 26.17 % Dose in data set [1] (Total (0-48 hours), female rats). Further, the “Proportion of feces sample radioactivity” value in data set [1] (female rats) was found to be 28.5 % sample radioactivity; in data set [1] (male rats) it was 21.5 % sample radioactivity. Moreover, in data set [2], the Protein binding result is listed as “high protein binding”. For the same molecule, the Unbound fraction result in data set [2] is listed as “very low”.
